Assay results as given in patent US8507483B2, “1H-pyrimidin-2-one derivatives, preparation thereof and pharmaceutical use thereof as inhibitors of AKT (PKB) phosphorylation” (Sanofi, priority 2009, dated 2013).

tested on: AKT protein phosphorylated on serine 473 (P-AKT-S473) in PC3 human prostate carcinoma cells; test: pAKT expression in PC3 cells measured by MSD Multi-spot Biomarker Detection (Test B); type: cell-based; details: PC-3, inhibition of AKT Ser473 phosphorylation, 1 to 2 h incubation, MSD sandwich immunoassay, absolute IC50, mean of two experiments
Protocol: The inhibitory activity of the molecules on AKT phosphorylation is measured either by western blotting using the technique described below, or by the MSD Multi-spot Biomarker detection technique from Meso Scale Discovery also described below.
Where appropriate, the activity of the products is translated into approximately IC50, obtained from a dose-response curve of various concentrations tested and representing the dose giving 50% of specific inhibition (absolute IC50). Two independent experiments make it possible to calculate the mean of the IC50s. Study of pAKT expression in PC3 human prostate carcinoma cells measured by the MSD Multi-spot Biomarker Detection technique from Meso Scale Discovery (Test B): This test is based on measuring the expression of the AKT protein phosphorylated on serine 473 (P-AKT-S473), in the PC3 human prostate carcinoma line, by means of the technique based on a sandwich immunoassay using the MSD Multi-spot Biomarker Detection kit from Meso Scale Discovery: phospho-Akt (Ser473) whole cell lysate kit (#K151 CAD) or phospho-Akt (Ser473)/Total Akt whole cell lysate kit (#K151OOD).
The primary antibody specific for P-AKT-5473 (Kit #K151 CAD) is coated onto an electrode in each well of the 96-well plates of the MSD kit: after the addition of a protein lysate to each well, the signal is visualised by adding a secondary detection antibody labelled with an electrochemoluminescent compound. The procedure followed is that described in the kit.
On day 1, the PC3 cells are seeded into 96-well plates (TPP, #92096) at the concentration of 35 000 cells/well in 200 μl of DMEM medium (DMEM Gibco #11960-044) containing 10% of foetal calf serum (FCS Gibco, #10500-056) and 1% glutamine (L-Glu Gibco #25030-024), and incubated at 37° C., 5% CO2, overnight.
On day 2, the cells are incubated in the presence or absence of the test products for 1 to 2 h at 37° C. in the presence of 5% of CO2. The molecules, diluted in dimethyl sulphoxide (DMSO Sigma #D2650), are added from a 20-times concentrated stock solution, the final percentage of DMSO being 0.1%. The molecules are tested either at a single concentration of less than or equal to 10 μM, or at increasing concentrations in a range that can extend from less than 1 nM to 10 μM.
After this incubation, the cells are lysed for the preparation of the proteins. For this, after the culture medium has been drawn off, […] of complete Tris Lysis Buffer of the MSD kit containing the protease and phosphatase inhibitor solutions are added to the wells and the cells are lysed for 1 h at 4° C. with shaking At this stage, the plates containing the lysates can be frozen at −20° C. or at −80° C.
The wells of the 96-well plates of the MSD kit are saturated for 1 h at ambient temperature with the blocking solution of the MSD kit. Four washes are carried out with 150 μl of Tris Wash Buffer of the MSD kit. The lysates previously prepared are transferred into the 96-well multi-spot plates of the MSD kit and incubated for 1 h at ambient temperature, with shaking Four washes are carried out with 150 μl of Tris Wash Buffer of the MSD kit. 25 μl of the MSD sulpho-tag detection antibody solution are added to the wells and incubated for 1 h at ambient temperature, with shaking Four washes are carried out with 150 μl of Tris Wash Buffer of the MSD kit. 150 μl of Read Buffer of the MSD kit are added to the wells and the plates are read immediately on the 512400 instrument from Meso Scale Discovery.
The instrument measures a signal for each well. Wells without cells and containing the lysis buffer serve to determine the background noise that will be subtracted from all the measurements (min). The wells containing cells in the absence of product and in the presence of 0.1% DMSO are considered to be the 100% signal (max). The percentage inhibition is calculated for each concentration of test product according to the following formula: (1−((test−min)/(max−min)))×100. […]

SMILES	IC50
COCCn1c(Cc2nc(N3CCOCC3)cc(=O)[nH]2)nc2cc(F)ccc21 [Example 19, 2-{[5-fluoro-1-(2-methoxyethyl)-1H-benzimidazol-2-yl]methyl}-6-(morpholin-4-yl)pyrimidin-4(3H)-one]	109 nM
O=c1cc(N2CCOCC2)nc(Cc2nc3c(O)cccc3o2)[nH]1 [Example 40, 2-[(4-hydroxy-1,3-benzoxazol-2-yl)methyl]-6-(morpholin-4-yl)pyrimidin-4(3H)-one]	44 nM
Cc1cc2nc(Cc3nc(N4CCOCC4)cc(=O)[nH]3)[nH]c2cc1Cl [Example 29, 2-[(5-chloro-6-methyl-1H-benzimidazol-2-yl)methyl]-6-(morpholin-4-yl)pyrimidin-4(3H)-one]	506 nM
N#CCn1c(Cc2nc(N3CCOCC3)cc(=O)[nH]2)nc2ccccc21 [Example 30, (2-{[4-(morpholin-4-yl)-6-oxo-1,6-dihydropyrimidin-2-yl]methyl}-1H-benzimidazol-1-yl)acetonitrile]	1340 nM
O=c1cc(N2CCOCC2)nc(Cc2nc3cc(F)c(F)cc3o2)[nH]1 [Example 16, 2-[(5,6-difluoro-1,3-benzoxazol-2-yl)methyl]-6-(morpholin-4-yl)pyrimidin-4(3H)-one]	187 nM
CCn1c(Cc2nc(N3CCOCC3)cc(=O)[nH]2)nc2ccccc21 [Example 15, 2-[(1-ethyl-1H-benzimidazol-2-yl)methyl]-6-(morpholin-4-yl)pyrimidin-4(3H)-one]	26 nM
O=c1cc(N2CCOCC2)nc(Cc2nc3c(Br)cc(F)cc3[nH]2)[nH]1 [Example 35, 2-[(4-bromo-6-fluoro-1H-benzimidazol-2-yl)methyl]-6-(morpholin-4-yl)pyrimidin-4(3H)-one]	115 nM
Cn1c(Cc2nc(N3CCOCC3)cc(=O)[nH]2)nc2cc(Cl)c(Cl)cc21 [Example 38, 2-[(5,6-Dichloro-1-methyl-1H-benzimidazol-2-yl)methyl]-6-(morpholin-4-yl)pyrimidin-4(3H)-one]	65 nM
CC(c1ccccc1)n1c(Cc2nc(N3CCOCC3)cc(=O)[nH]2)nc2cc(Cl)ccc21 (stereo not drawn) [Example 32, 2-{[5-chloro-1-(1-phenylethyl)-1H-benzimidazol-2-yl]methyl}-6-(morpholin-4-yl)pyrimidine-4(3H)-one]	206 nM
O=c1cc(N2CCOCC2)nc(Cc2nc3ccc(Br)cc3o2)[nH]1 [Example 9, 2-[(6-bromo-1,3-benzoxazol-2-yl)methyl]-6-(morpholin-4-yl)pyrimidin-4(3H)-one]	175 nM
COc1ccc2nc(Cc3nc(N4CCOCC4)cc(=O)[nH]3)oc2c1 [Example 21, 2-[(6-methoxy-1,3-benzoxazol-2-yl)methyl]-6-(morpholin-4-yl)pyrimidin-4(3H)-one]	18 nM
Cc1ccc2nc(Cc3nc(N4CCOCC4)cc(=O)[nH]3)oc2c1 [Example 8, 2-[(6-methyl-1,3-benzoxazol-2-yl)methyl]-6-(morpholin-4-yl)pyrimidin-4(3H)one]	143 nM
Cn1c(Cc2nc(N3CCOCC3)cc(=O)[nH]2)nc2ccc(Br)cc21 [Example 36, 2-[(6-Bromo-1-methyl-1H-benzimidazol-2-yl)methyl]-6-(morpholin-4-yl)pyrimidin-4(3H)-one]	28 nM
O=c1cc(N2CCOCC2)nc(Cc2nc3ccc4ccccc4c3o2)[nH]1 [Example 20, 6-(morpholin-4-yl)-2-(naphtho[2,1-d][1,3]oxazol-2-ylmethyl)pyrimidin-4(3H)-one]	1000 nM
O=c1cc(N2CCOCC2)nc(Cc2nc3cc(F)c(F)c(F)c3[nH]2)[nH]1 [Example 34, 6-(morphlolin-4-yl)-2-[(5,6,7-trifluoro-1H-benzimidazol-2-yl)methyl]pyrimidin-4(3H)-one]	208 nM

More lines, in order of falling IC50, values ahead:

IC50	SMILES
3000 nM	O=c1cc(N2CCOCC2)nc(Cc2nc3c(Cl)cc(C(F)(F)F)cc3[nH]2)[nH]1 [Example 25, 2-{[4-chloro-6-(trifluoromethyl)-1H-benzimidazol-2-yl]methyl}-6-(morpholin-4-yl)pyrimidin-4(3H)-one]
961 nM	O=c1cc(N2CCOCC2)nc(Cc2nc3ccc(C(F)(F)F)cc3[nH]2)[nH]1 [Example 26, 6-(morpholin-4-yl)-2-{[6-(trifluoromethyl)-1H-benzimidazol-2-yl]methyl}pyrimidine-4(3H)-one]
585 nM	O=c1cc(N2CCOCC2)nc(Cc2nc3c(F)c(F)ccc3[nH]2)[nH]1 [Example 28, 2-[(6,7-difluoro-1H-benzimidazol-2-yl)methyl]-6-(morpholin-4-yl)pyrimidine-4(3H)-one]
475 nM	COc1ccc2nc(Cc3nc(N4CCOCC4)cc(=O)[nH]3)[nH]c2c1 [Example 4, 2-[(6-methoxy-1H-benzimidazol-2-yl)methyl]-6-(morpholin-4-yl)pyrimidin-4(3H)-one]
256 nM	O=c1cc(N2CCOCC2)nc(Cc2nc3cc(F)c(Cl)cc3[nH]2)[nH]1 [Example 27, 2-[(5-chloro-6-fluoro-1H-benzimidazol-2-yl)methyl]-6-(morpholin-4-yl)pyrimidin-4(3H)-one]
193 nM	O=c1cc(N2CCOCC2)nc(Cc2nc3cc(Cl)c(Cl)cc3[nH]2)[nH]1 [Example 23, 2-[(5,6-dichloro-1H-benzimidazol-2-yl)methyl]-6-(morpholin-4-yl)pyrimidin-4(3H)-one]
142 nM	O=c1cc(N2CCOCC2)nc(Cc2nc3ccccc3n2C2CCCCC2)[nH]1 [Example 33, 2-[(1-cyclohexyl-1H-benzimidazol-2-yl)methyl]-6-(morpholin-4-yl)pyrimidin-4(3H)-one]
140 nM	Cc1ccc2nc(Cc3nc(N4CCOCC4)cc(=O)[nH]3)[nH]c2c1 [Example 24, 2-[(6-methyl-1H-benzimidazol-2-yl)methyl]-6-(morpholin-4 yl)pyrimidin-4(3H)-one]
105 nM	O=c1cc(N2CCOCC2)nc(Cc2nc3ccccc3n2Cc2ccccc2)[nH]1 [Example 14, 2-[(1-benzyl-1H-benzimidazol-2-yl)methyl]-6-(morpholin-4-yl)pyrimidin-4(3H)-one]
100 nM	Cn1c(Cc2nc(N3CCOCC3)cc(=O)[nH]2)nc2cc(F)c(F)c(F)c21 [Example 39, 6-(Morpholin-4-yl)-2-[(5,6,7-trifluoro-1-methyl-1H-benzimidazol-2-yl)methyl]pyrimidin-4(3H)-one]
88 nM	O=c1cc(N2CCOCC2)nc(Cc2nc3cccc(F)c3o2)[nH]1 [Example 12, 2-[(7-fluoro-1,3-benzoxazol-2-yl)methyl]-6-(morpholin-4-yl)pyrimidin-4(3H)-one]
63 nM	O=c1cc(N2CCOCC2)nc(Cc2nc3ccc(Cl)cc3[nH]2)[nH]1 [Example 17, 2-[(6-chloro-1H-benzimidazol-2-yl)methyl]-6-(morpholin-4-yl)pyrimidin-4(3H)-one]
28 nM	O=c1cc(N2CCOCC2)nc(Cc2nc3ccc(F)c(F)c3o2)[nH]1 [Example 22, 2-[(6,7-difluoro-1,3-benzoxazol-2-yl)methyl]-6-(morpholin-4-yl)pyrimidin-4(3H)-one]
15 nM	Cn1c(Cc2nc(N3CCOCC3)cc(=O)[nH]2)nc2ccc(F)c(F)c21 [Example 37, 2-[(6,7-Difluoro-1-methyl-1H-benzimidazol-2-yl)methyl]-6-(morpholin-4-yl)pyrimidin-4(3H)-one]
8 nM	O=c1cc(N2CCOCC2)nc(Cc2nc3ccccc3n2-c2ccccc2)[nH]1 [Example 13, 6-(morpholin-4-yl)-2-[(1-phenyl-1H-benzimidazol-2-yl)methyl]pyrimidin-4(3H)-one]
